From patent publication US6914045B2, “Glycopeptide antibiotics” (Wyeth Holdings Corporation, priority 2001, dated 2005)
Converted amounts (≈) assume the structure as drawn.

Legend:
Assay in all cases: in vitro antibacterial evaluation, MIC by broth dilution
Format in all cases: cell-based
[1] = test system: Enterococcus sp.; conditions: broth dilution, 18 hours at 35° C.
Summary of the method: (§1)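 MIC = lowest antibiotic concentration preventing visible growth; inoculum 5×10^5 CFU/mL; drug range 64-0.06 μg/mL; Muller-Hinton II […]; NCCLS M7-A2 guidance.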

[2] = test system: Streptococcus sp.; conditions: broth dilution, 18 hours at 35° C.
Summary of the method: as §1

[3] = test system: Escherichia coli; conditions: 18 hours at 35° C.
Summary of the method: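 Following National Committee for Clinical Laboratory Standards recommendations (M7-A2), susceptibility was measured by dilution in Muller-Hinton II […]. Bacteria were seeded at 5×10^5 CFU/mL against compound concentrations from 64 down to 0.06 μg/mL.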

[4] = test system: Staphylococcus sp.; conditions: broth dilution, 18 hours at 35° C.
Summary of the method: as §1

- MIC Enterococcus avium (GC 4558) ([1]; Enterococcus avium (GC 4558)): 128 µg/mL (≈ 94.7 µM)
- MIC Enterococcus faecalis (ATCC 29212) ([1]; Enterococcus faecalis (ATCC 29212)): >128 µg/mL
- MIC Enterococcus faecalis (GC 4553) ([1]; Enterococcus faecalis (GC 4553)): >128 µg/mL
- MIC Enterococcus faecalis (GC 4554) ([1]; Enterococcus faecalis (GC 4554)): >128 µg/mL
- MIC Enterococcus faecalis (GC 6189) ([1]; Enterococcus faecalis (GC 6189)): >128 µg/mL
- MIC Enterococcus faecium (GC 2243) ([1]; Enterococcus faecium (GC 2243)): >128 µg/mL
- MIC Enterococcus faecium (GC 4556) ([1]; Enterococcus faecium (GC 4556)): >128 µg/mL
- MIC Enterococcus faecium (GC 4557) ([1]; Enterococcus faecium (GC 4557)): 64 µg/mL (≈ 47.4 µM)
- MIC Enterococcus faecalis (ATCC 29212) ([1]; strain ATCC 29212): >128 µg/mL
- MIC Enterococcus faecalis (GC 2242) ([1]; strain GC 2242): 128 µg/mL (≈ 94.7 µM)
- MIC Enterococcus faecium (GC 2243) ([1]; strain GC 2243): >128 µg/mL
- MIC Enterococcus faecalis (GC 2691) ([1]; strain GC 2691): >128 µg/mL
- MIC Enterococcus faecalis (GC 3059) ([1]; strain GC 3059): >128 µg/mL
- MIC Enterococcus faecalis (GC 4552) ([1]; strain GC 4552): >128 µg/mL
- MIC Enterococcus faecalis (GC 4553) ([1]; strain GC 4553): >128 µg/mL
- MIC Enterococcus faecalis (GC 4554) ([1]; strain GC 4554): >128 µg/mL
- MIC Enterococcus faecium (GC 4556) ([1]; strain GC 4556): >128 µg/mL
- MIC Enterococcus faecium (GC 4557) ([1]; strain GC 4557): 64 µg/mL (≈ 47.4 µM)
- MIC Enterococcus avium (GC 4558) ([1]; strain GC 4558): 128 µg/mL (≈ 94.7 µM)
- MIC Enterococcus faecalis (GC 6189) ([1]; strain GC 6189): >128 µg/mL
- MIC Streptococcus pneumoniae (ATCC 6301) ([2]; strain ATCC 6301): 16 µg/mL (≈ 11.8 µM)
- MIC Streptococcus pneumoniae (GC 1894) ([2]; strain GC 1894): 16 µg/mL (≈ 11.8 µM)
- MIC Streptococcus pyogenes (GC 4563) ([2]; strain GC 4563): 64 µg/mL (≈ 47.4 µM)
- MIC Streptococcus agalactiae (GC 4564) ([2]; strain GC 4564): 64 µg/mL (≈ 47.4 µM)
- MIC Streptococcus pneumoniae (GC 4565) ([2]; strain GC 4565): 16 µg/mL (≈ 11.8 µM)
- MIC Escherichia coli (ATCC 25922) ([3]; Escherichia coli (ATCC 25922)): 128 µg/mL (≈ 94.7 µM)
- MIC Escherichia coli (GC 4559) ([3]; Escherichia coli (GC 4559)): >128 µg/mL
- MIC Escherichia coli (GC 4560) ([3]; Escherichia coli (GC 4560)): 32 µg/mL (≈ 23.7 µM)
- MIC Coagulase Negative Staphylococcus (GC 4547) [4]: 64 µg/mL (≈ 47.4 µM)
- MIC Coagulase Negative Staphylococcus (GC 4548) [4]: 64 µg/mL (≈ 47.4 µM)
- MIC Coagulase Negative Staphylococcus (GC 4549) [4]: 32 µg/mL (≈ 23.7 µM)
- MIC Coagulase Negative Staphylococcus (GC 4551) [4]: 64 µg/mL (≈ 47.4 µM)
- MIC Staphylococcus aureus (ATCC 29213) [4]: 64 µg/mL (≈ 47.4 µM)
- MIC Staphylococcus aureus (GC 1131) [4]: 64 µg/mL (≈ 47.4 µM)
- MIC Staphylococcus aureus (GC 3051) [4]: 64 µg/mL (≈ 47.4 µM)
- MIC Staphylococcus aureus (GC 3053) [4]: 128 µg/mL (≈ 94.7 µM)
- MIC Staphylococcus aureus (GC 4541) [4]: 64 µg/mL (≈ 47.4 µM)
- MIC Staphylococcus aureus (GC 4542) [4]: 64 µg/mL (≈ 47.4 µM)
- MIC Staphylococcus aureus (GC 4544) [4]: 64 µg/mL (≈ 47.4 µM)
- MIC Staphylococcus aureus (GC 4545) [4]: 64 µg/mL (≈ 47.4 µM)
- MIC Staphylococcus aureus-SMITH (GC 4543) [4]: 64 µg/mL (≈ 47.4 µM)
- MIC Staphylococcus aureus (ATCC 29213) ([4]; strain ATCC 29213): 64 µg/mL (≈ 47.4 µM)
- MIC Staphylococcus aureus (GC 1131) ([4]; strain GC 1131): 64 µg/mL (≈ 47.4 µM)
- MIC Staphylococcus aureus (GC 3051) ([4]; strain GC 3051): 64 µg/mL (≈ 47.4 µM)
- MIC Staphylococcus aureus (GC 3053) ([4]; strain GC 3053): 128 µg/mL (≈ 94.7 µM)
- MIC Staphylococcus aureus (GC 4541) ([4]; strain GC 4541): 64 µg/mL (≈ 47.4 µM)
- MIC Staphylococcus aureus (GC 4542) ([4]; strain GC 4542): 64 µg/mL (≈ 47.4 µM)
- MIC Staphylococcus aureus (GC 4544) ([4]; strain GC 4544): 64 µg/mL (≈ 47.4 µM)
- MIC Staphylococcus aureus (GC 4545) ([4]; strain GC 4545): 64 µg/mL (≈ 47.4 µM)
- MIC Coagulase Negative Staphylococcus (GC 4547) ([4]; strain GC 4547): 64 µg/mL (≈ 47.4 µM)
- MIC Coagulase Negative Staphylococcus (GC 4548) ([4]; strain GC 4548): 64 µg/mL (≈ 47.4 µM)
- MIC Coagulase Negative Staphylococcus (GC 4549) ([4]; strain GC 4549): 32 µg/mL (≈ 23.7 µM)
- MIC Coagulase Negative Staphylococcus (GC 4551) ([4]; strain GC 4551): 64 µg/mL (≈ 47.4 µM)
- MIC Staphylococcus aureus-SMITH (GC 4543) ([4]; strain SMITH GC 4543): 64 µg/mL (≈ 47.4 µM)
SMILES: CC(C)C(=O)OCC1OC(OC2C(CO)OC(Oc3ccc(CC4NC(=O)C(Cc5ccccc5)NC(=O)CNC(=O)C(CO)NC(=O)C(C(O)C5CNC(=N)N5C5OC(CO)C(O)C(O)C5O)NC(=O)C(C(O)C5CNC(=N)N5)NC4=O)cc3)C(O)C2O)C(O)C(O)C1O (centres unmarked) [Example 283a, Cyclo[glycylphenylalanyl-O-[4-O-[6-O-(2-methylpropanoyl)-hexopyranosyl]hexopyranosyl]tyrosyl-3-(2-iminoimidazolidin-4-yl)seryl-3-(3-hexopyranosyl-2-iminoimidazolidin-4-yl)seryliseryl]]
- MIC Staphylococcus haemolyticus (GC 4546) [4]: 64 µg/mL (≈ 47.4 µM)
- MIC Staphylococcus haemolyticus (GC 4546) ([4]; strain GC 4546): 64 µg/mL (≈ 47.4 µM)
